Experimental data published in article PMC5007552, “The hVps34‐SGK3 pathway alleviates sustained PI3K/Akt inhibition by stimulating mTORC1 and tumour growth” (The EMBO Journal, 2016).
Where “and” joins values, the source holds several entries; their conditions need not be identical. Equal values may be shown once.

Tested on: ZR-75-1 cells
Experiment: NanoString human kinome mRNA quantification
Type: cell-based
Excerpt: Human mRNAs were hybridised to NanoString human kinome and control code sets, then subjected to quantification using NanoString software. […] To permit data compaction, and simple kinome‐wide comparisons, the fold changes are log2 transformed. […] Cell pellets were resuspended at a concentration of ~6,500 cells/μl in RLT buffer (Qiagen). […] For total copy numbers, triplicate normalised count values were averaged, and to calculate fold induction, means were divided by triplicate mean values from matched DMSO controls. P‐values were calculated using unpaired t‐test (GraphPad Prism software) by employing treated and control count data for each kinase mRNA.

NC1(c2ccc(-c3nc4ccn5c(=O)[nH]nc5c4cc3-c3ccccc3)cc2)CCC1 [MK-2206]
BRD4 Normalised counts (BRD4 mRNA, single replicates): 2584.75 and 2591.35 and 2590.29
BRDT Average normalised counts (BRDT mRNA, average of 3 replicates): 1
BRDT Normalised counts (BRDT mRNA, single replicates): 1
BRSK1 Average normalised counts (BRSK1 mRNA, average of 3 replicates): 145.583
BRSK1 Normalised counts (BRSK1 mRNA, single replicates): 127.82 and 151.05 and 157.88
BRSK2 Average normalised counts (BRSK2 mRNA, average of 3 replicates): 4.607
BRSK2 Normalised counts (BRSK2 mRNA, single replicates): 2.39 and 5.97 and 5.46
BTK Average normalised counts (BTK mRNA, average of 3 replicates): 1
BTK Normalised counts (BTK mRNA, single replicates): 1
BUB1B Average normalised counts (BUB1B mRNA, average of 3 replicates): 1729.87
BUB1B Normalised counts (BUB1B mRNA, single replicates): 1717.6 and 1711.31 and 1760.7
BUB1 Average normalised counts (BUB1 mRNA, average of 3 replicates): 648.95
BUB1 Normalised counts (BUB1 mRNA, single replicates): 644.12 and 665.35 and 637.38
C9orf96 Average normalised counts (C9orf96 mRNA, average of 3 replicates): 2.773
C9orf96 Normalised counts (C9orf96 mRNA, single replicates): 1 and 4.24 and 3.08
C21orf7 Average normalised counts (C21orf7 mRNA, average of 3 replicates): 1
C21orf7 Normalised counts (C21orf7 mRNA, single replicates): 1
CAMK1D average normalised counts (CAMK1D mRNA): 339.763
CAMK1D normalised counts (replicates) (CAMK1D mRNA): 364.15 and 317.85 and 337.29
CAMK1G average normalised counts (CAMK1G mRNA): 1
CAMK1G normalised counts (replicates) (CAMK1G mRNA): 1
CAMK1 average normalised counts (CAMK1 mRNA): 4.053
CAMK1 normalised counts (replicates) (CAMK1 mRNA): 4.2 and 2.5 and 5.46
CAMK2A average normalised counts (CAMK2A mRNA): 1
CAMK2A normalised counts (replicates) (CAMK2A mRNA): 1
CAMK2B average normalised counts (CAMK2B mRNA): 228.397
CAMK2B normalised counts (replicates) (CAMK2B mRNA): 211.86
CAMK2D average normalised counts (CAMK2D mRNA): 829.067
CAMK2D normalised counts (replicates) (CAMK2D mRNA): 815.91 and 824.33 and 846.96
CAMK2G average normalised counts (CAMK2G mRNA): 2774.38
CAMK2G normalised counts (replicates) (CAMK2G mRNA): 2695.65 and 2845.89 and 2781.61
CAMK4 average normalised counts (CAMK4 mRNA): 3.433
CAMK4 normalised counts (replicates) (CAMK4 mRNA): 4.2 and 5.1 and 1
CAMKK1 average normalised counts (CAMKK1 mRNA): 313.75
CAMKK1 normalised counts (replicates) (CAMKK1 mRNA): 326.89 and 314.38 and 299.98
CAMKK2 average normalised counts (CAMKK2 mRNA): 584.02
CAMKK2 normalised counts (replicates) (CAMKK2 mRNA): 568.67 and 607.14 and 576.25
CAMKV average normalised counts (CAMKV mRNA): 1.5
CAMKV normalised counts (replicates) (CAMKV mRNA): 1 (2×) and 2.5
CASK average normalised counts (CASK mRNA): 727.217
CASK normalised counts (replicates) (CASK mRNA): 714.11 and 680.12 and 787.42
CCL2 average normalised counts (CCL2 mRNA): 6.427
CCL2 normalised counts (replicates) (CCL2 mRNA): 9.66 and 3.37 and 6.25
CDC7 average normalised counts (CDC7 mRNA): 336.743
CDC7 normalised counts (replicates) (CDC7 mRNA): 335.98 and 336.96 and 337.29
CDC42BPA average normalised counts (CDC42BPA mRNA): 675.63
CDC42BPA normalised counts (replicates) (CDC42BPA mRNA): 678.66 and 677.51 and 670.72
CDC42BPB average normalised counts (CDC42BPB mRNA): 1143.02
CDC42BPB normalised counts (replicates) (CDC42BPB mRNA): 1097.69 and 1178.77 and 1152.6
CDC42BPG average normalised counts (CDC42BPG mRNA): 104.73
CDC42BPG normalised counts (replicates) (CDC42BPG mRNA): 110.55 and 108.48 and 95.16
CDK1 average normalised counts (CDK1 mRNA): 3517.89
CDK1 normalised counts (replicates) (CDK1 mRNA): 3504.63 and 3450.53 and 3598.5
CDK2 average normalised counts (CDK2 mRNA): 369.187
CDK2 normalised counts (replicates) (CDK2 mRNA): 366.88 and 370.84 and 369.84
CDK3 average normalised counts (CDK3 mRNA): 56.79
CDK3 normalised counts (replicates) (CDK3 mRNA): 49.65 and 58.1 and 62.62
CDK4 average normalised counts (CDK4 mRNA): 2610.07
CDK4 normalised counts (replicates) (CDK4 mRNA): 2590.21 and 2633.05 and 2606.96
CDK5 average normalised counts (CDK5 mRNA): 1339.04
CDK5 normalised counts (replicates) (CDK5 mRNA): 1332.2 and 1264.78 and 1420.13
CDK6 average normalised counts (CDK6 mRNA): 35.6167
CDK6 normalised counts (replicates) (CDK6 mRNA): 34.2 and 34.64 and 38.01
CDK7 average normalised counts (CDK7 mRNA): 605.207
CDK7 normalised counts (replicates) (CDK7 mRNA): 585.94 and 619.3 and 610.38
CDK8 average normalised counts (CDK8 mRNA): 908.99
CDK8 normalised counts (replicates) (CDK8 mRNA): 898.63 and 942.48 and 885.86
CDK9 average normalised counts (CDK9 mRNA): 879.65
CDK9 normalised counts (replicates) (CDK9 mRNA): 853.18 and 899.91 and 885.86
CDK10 average normalised counts (CDK10 mRNA): 437.29
CDK10 normalised counts (replicates) (CDK10 mRNA): 440.51 and 431.66 and 439.7
CDK11A average normalised counts (CDK11A mRNA): 420.55
CDK11A normalised counts (replicates) (CDK11A mRNA): 435.96 and 389.96 and 435.73
CDK12 average normalised counts (CDK12 mRNA): 928.887
CDK12 normalised counts (replicates) (CDK12 mRNA): 909.53 and 946.82 and 930.31
CDK13 average normalised counts (CDK13 mRNA): 1530.42
CDK13 normalised counts (replicates) (CDK13 mRNA): 1564.9 and 1505.42 and 1520.95
CDK14 average normalised counts (CDK14 mRNA): 158.347
CDK14 normalised counts (replicates) (CDK14 mRNA): 151.46 and 173.64 and 149.94
CDK15 average normalised counts (CDK15 mRNA): 1
CDK15 normalised counts (replicates) (CDK15 mRNA): 1
CDK16 average normalised counts (CDK16 mRNA): 3907.09
CDK16 normalised counts (replicates) (CDK16 mRNA): 3890.94 and 3866.66 and 3963.68
CDK17 average normalised counts (CDK17 mRNA): 1410.09
CDK17 normalised counts (replicates) (CDK17 mRNA): 1395.83 and 1406.38 and 1428.07
CDK18 average normalised counts (CDK18 mRNA): 99.86
